Measured values reported in patent publication US8633183B2 (priority 2010, dated 2014).

Target: PI3Kalpha (Homo sapiens (Human), UniProt P42336)
Conditions: read-out: IC50 PI3K

PI3Kalpha, sequence (P42336 whole entry, looked up): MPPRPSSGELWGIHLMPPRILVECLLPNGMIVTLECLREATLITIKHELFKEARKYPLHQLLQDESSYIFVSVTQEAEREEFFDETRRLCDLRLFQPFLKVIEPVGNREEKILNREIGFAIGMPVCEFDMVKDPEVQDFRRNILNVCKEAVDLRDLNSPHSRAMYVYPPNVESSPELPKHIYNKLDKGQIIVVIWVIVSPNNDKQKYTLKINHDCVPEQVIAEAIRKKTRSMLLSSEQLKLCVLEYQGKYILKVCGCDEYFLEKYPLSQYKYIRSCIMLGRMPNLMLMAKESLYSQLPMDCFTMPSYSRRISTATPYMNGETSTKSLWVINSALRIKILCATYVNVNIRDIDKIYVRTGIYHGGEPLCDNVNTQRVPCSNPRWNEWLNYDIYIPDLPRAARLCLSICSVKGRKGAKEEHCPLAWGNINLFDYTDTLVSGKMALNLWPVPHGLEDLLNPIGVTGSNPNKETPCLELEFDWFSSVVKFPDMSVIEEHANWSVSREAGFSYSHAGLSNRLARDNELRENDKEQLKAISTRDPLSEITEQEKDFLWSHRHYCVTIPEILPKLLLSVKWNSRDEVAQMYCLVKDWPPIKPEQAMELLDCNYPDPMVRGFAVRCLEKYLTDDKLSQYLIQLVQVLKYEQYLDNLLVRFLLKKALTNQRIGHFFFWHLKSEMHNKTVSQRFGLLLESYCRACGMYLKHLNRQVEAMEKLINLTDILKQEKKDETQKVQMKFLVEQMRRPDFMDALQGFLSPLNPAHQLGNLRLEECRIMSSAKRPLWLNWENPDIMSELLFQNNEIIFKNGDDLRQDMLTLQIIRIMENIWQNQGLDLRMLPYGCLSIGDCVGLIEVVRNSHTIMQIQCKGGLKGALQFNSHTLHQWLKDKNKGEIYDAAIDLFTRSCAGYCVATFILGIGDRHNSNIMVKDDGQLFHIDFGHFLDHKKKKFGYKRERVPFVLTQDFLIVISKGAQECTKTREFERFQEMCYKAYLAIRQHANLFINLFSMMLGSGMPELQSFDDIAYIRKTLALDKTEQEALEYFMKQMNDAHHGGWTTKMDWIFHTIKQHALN

| SMILES | IC50 [nM] |
| --- | --- |
| CCc1ncnc(-c2ccc(C(=O)N(C)CCOC)c(Cl)c2)c1C#Cc1ccc(N)nc1 [Example D-35] | 63 |
| CCc1ncnc(-c2ccc(C(=O)N3CCNCC3)c(F)c2)c1C#Cc1ccc(N)nc1 [Example D-113] | 57 |
| CCc1ncnc(-c2ccc(C(=O)N3CCC(N4CCOCC4)CC3)c(F)c2)c1C#Cc1ccc(N)nc1 [Example D-63] | 234 |
| CCc1ncnc(-c2ccc(C(=O)N(C)C3CCOCC3)c(F)c2)c1C#Cc1ccc(N)nc1 [Example E-169] | 70 |
| CCc1ncnc(-c2cc(F)c(C(=O)N3CCN(CC4CC4)CC3)c(F)c2)c1C#Cc1ccc(N)nc1 [Example E-7] | 189 |
| CCc1ncnc(-c2cc(F)c(C(=O)N3CCC(C(C)O)CC3)c(Cl)c2)c1C#Cc1ccc(N)nc1 (stereo not shown) [Example E-241] | 91.5 |
| CCc1ncnc(-c2ccc(C(=O)N3CCN(CCOC)CC3)c(F)c2)c1C#Cc1ccc(N)nc1 [Example D-95] | 145 |
| CCc1ncnc(-c2ccc(C(=O)NC3CCCN(C)C3)c(C)c2)c1C#Cc1ccc(N)nc1 (stereo not shown) [Example E-120] | 349 |
| CCc1ncnc(-c2ccc(C(=O)N3CCOCC3)c(F)c2)c1C#Cc1ccc(N)nc1 [Example D-239] | 55 |
| CCc1ncnc(-c2cc(F)c(C(=O)N3CCN(C)C[C@H]3C)c(F)c2)c1C#Cc1ccc(N)nc1 [Example E-340] | 364 |
| Cc1ncnc(-c2ccc(C(=O)N3CCCO3)c(Cl)c2)c1C#Cc1ccc(N)nc1 [Example D-230] | 37 |
| CCc1ncnc(-c2ccc(C(=O)N3CCN(CC4CC4)CC3)c(C)c2)c1C#Cc1ccc(N)nc1 [Example E-116] | 110 |
| CCc1ncnc(-c2ccc(C(=O)N(C)OC)cc2)c1C#Cc1ccc(N)nc1 [Example D-225] | 66 |
| Cc1ncnc(-c2ccc(C(=O)N3CCN(c4ccccc4)CC3)cc2)c1C#Cc1ccc(N)nc1 [Example D-188] | 67 |
| CCc1ncnc(-c2ccc(C(=O)N(C)OC)c(C)c2)c1C#Cc1ccc(N)nc1 [Example E-104] | 71.9 |
| CCc1ncnc(-c2cccc(C(=O)N(CC)CC)c2)c1C#Cc1ccc(N)nc1 [Example C-44] | 188 |
| Cc1ncnc(-c2ccc(C(F)(F)F)nc2)c1C#Cc1ccc(N)nc1 [Example C-21] | 99 |
| CCc1ncnc(-c2ccc(C(=O)N3CCC(C4CCN(C)CC4)CC3)c(C)c2)c1C#Cc1ccc(N)nc1 [Example E-119] | 281 |
| CCc1ncnc(-c2ccc(C(=O)N3CC[C@@H](N(C)C)C3)c(F)c2)c1C#Cc1ccc(N)nc1 [Example D-236] | 269 |
| CCc1ncnc(-c2ccc(C(=O)N3CCC(N4CCCC4)C3)c(F)c2)c1C#Cc1ccc(N)nc1 [Example D-235] | 226 |
| CCc1ncnc(-c2cc(F)c(C(=O)N3CCN4CCC[C@H]4C3)c(Cl)c2)c1C#Cc1ccc(N)nc1 [Example E-238] | 175 |
| CCc1ncnc(-c2ccc(C(=O)N3CCC(N4CCOCC4)CC3)c(Cl)c2)c1C#Cc1ccc(NC)nc1 [Example E-185] | 202 |
| CCc1ncnc(-c2ccc(C(=O)N3CCN(C4COC4)CC3)c(F)c2)c1C#Cc1ccc(N)nc1C [Example E-280] | 153 |
| CCc1ncnc(-c2ccc(C(=O)N3CCN(CC4CC4)CC3)c(F)c2)c1C#Cc1ccc(N)nc1 [Example D-106] | 249 |
| CCc1ncnc(-c2ccc(C(=O)N3CCC(N4CCCC4)CC3)c(F)c2)c1C#Cc1ccc(N)nc1 [Example D-112] | 323 |

| SMILES | IC50 [nM] |
| --- | --- |
| CCc1ncnc(-c2cc(F)c(C(=O)N3CCN(CC(F)F)CC3)c(F)c2)c1C#Cc1ccc(NC)nc1 [Example E-217] | 327 |
| CCOC(=O)N1CCN(C(=O)c2ccc(-c3ncnc(CC)c3C#Cc3ccc(N)nc3)cc2OC)CC1 [Example E-62] | 246 |
| CCc1ncnc(-c2cc(F)c(C(=O)NCCN3CCOCC3)c(F)c2)c1C#Cc1ccc(N)nc1 [Example E-13] | 154 |
| CCc1ncnc(-c2ccc(C(=O)N3CCN(CCNS(C)(=O)=O)CC3)c(F)c2)c1C#Cc1ccc(N)nc1 [Example E-246] | 81.3 |
| CCc1ncnc(-c2ccc(C(=O)N3CCNCC3)c(Cl)c2)c1C#Cc1ccc(N)nc1 [Example D-152] | 164 |
| CCc1ncnc(-c2ccc(C(=O)N3CCN(C4CCS(=O)(=O)C4)CC3)c(OC)c2)c1C#Cc1ccc(N)nc1 (stereo not shown) [Example E-54] | 165 |
| CCc1ncnc(-c2cccc(C(=O)NC)c2)c1C#Cc1ccc(N)nc1 [Example C-50] | 72 |
| CCc1ncnc(-c2ccc(C(=O)N3CCC(C(C)(C)O)CC3)c(F)c2)c1C#Cc1ccc(N)nc1 [Example D-79] | 170 |
| CCc1ncnc(-c2ccc(C(=O)N3CCC4(CC3)CC(N)C4)c(F)c2)c1C#Cc1ccc(N)nc1 [Example E-320] | 1300 |
| CCc1ncnc(-c2ccc(C(=O)N3CCN(CCCS(C)(=O)=O)CC3)c(F)c2)c1C#Cc1ccc(N)nc1 [Example E-250] | 92.2 |
| CCc1ncnc(-c2ccc(C(=O)N3CCC(O)(CC)CC3)c(F)c2)c1C#Cc1ccc(N)nc1 [Example D-125] | 269 |
| CCc1ncnc(-c2ccc(C(=O)N3CCC(C(C)(C)O)CC3)c(OC)c2)c1C#Cc1ccc(N)nc1 [Example E-44] | 232 |
| CCc1ncnc(-c2ccc(C(=O)NC3CC(N4CCC(N5CCCC5)CC4)C3)c(F)c2)c1C#Cc1ccc(N)nc1 [Example D-208] | 308 |
| CCc1ncnc(-c2ccc(C(=O)N3CCN(C4CCCC4)CC3)c(OC)c2)c1C#Cc1ccc(N)nc1 [Example E-68] | 412 |
| CCc1ncnc(-c2cc(F)c(C(=O)N3CCN(C)C(=O)C3)c(Cl)c2)c1C#Cc1ccc(N)nc1 [Example E-239] | 46.2 |
| CCc1ncnc(-c2cc(F)c(C(=O)N3CCN(C(C)(C)C)CC3)c(F)c2)c1C#Cc1ccc(N)nc1 [Example E-8] | 1320 |
| CCNc1ccc(C#Cc2c(CC)ncnc2-c2ccc(C(=O)N3CCC4(CC3)CN(C(=O)OC(C)(C)C)C4)c(F)c2)cn1 [Example E-266] | 560 |
| CCc1ncnc(-c2ccc(C(=O)N3CCN(C)CC3)c(C(F)(F)F)c2)c1C#Cc1ccc(N)nc1 [Example E-229] | 174 |
| CCc1ncnc(-c2ccc(C(=O)NCC3(C)COC3)c(F)c2)c1C#Cc1ccc(N)nc1 [Example D-214] | 72 |
| CCc1ncnc(-c2ccc(C(=O)N3CCC(N(CC)CC)C3)c(F)c2)c1C#Cc1ccc(N)nc1 [Example D-238] | 382 |
| CCc1ncnc(-c2cc(F)c(C(=O)N3CCN(CCOC)CC3)c(F)c2)c1C#Cc1ccc(N)nc1 [Example E-5] | 78.8 |
| CCc1ncnc(-c2cc(F)c(C(=O)N3CCn4c(COC)nnc4C3)c(F)c2)c1C#Cc1ccc(N)nc1 [Example E-170] | 96.5 |
| CCc1ncnc(-c2ccc(C(=O)N3CCC(C(C)(C)O)CC3)c(Cl)c2)c1C#Cc1ccc(N)nc1 [Example E-20] | 101 |
| CCc1ncnc(-c2ccccc2)c1C#Cc1ccc(N)nc1 [Example C-13] | 99 |
| CCc1ncnc(-c2ccc(N3CCOCC3)nc2)c1C#Cc1ccc(N)nc1 [Example C-32] | 32 |

| SMILES | IC50 [nM] |
| --- | --- |
| CCc1ncnc(-c2ccc(C(=O)N3CCN(Cc4ncon4)CC3)c(Cl)c2)c1C#Cc1ccc(N)nc1 [Example E-342] | 137 |
| CCc1ncnc(-c2ccc(C(=O)N3CCC4(CC3)CNC4)c(Cl)c2)c1C#Cc1ccc(N)nc1 [Example E-251] | 90.7 |
| CCc1ncnc(-c2ccc(C(=O)NCCN3CCCC3=O)c(F)c2)c1C#Cc1ccc(N)nc1 [Example D-211] | 46 |
| CCc1ncnc(-c2ccc(C(=O)N(C)CCN3CCCC3=O)c(OC)c2)c1C#Cc1ccc(N)nc1 [Example E-65] | 88 |
| CCc1ncnc(-c2ccc(C(=O)N3CCN(C4CCCC4)CC3)c(F)c2)c1C#Cc1ccc(N)nc1 [Example D-96] | 151 |
| CCc1ncnc(-c2ccc(C(=O)N3CCC(N4CCOCC4)CC3)c(F)c2)c1C#Cc1ccc(NC)nc1 [Example E-178] | 335 |
| CCc1ncnc(-c2ccc(C(=O)N3CCC(N4CCN(C)CC4)CC3)c(F)c2)c1C#Cc1ccc(NC)nc1 [Example E-183] | 308 |
| CCc1ncnc(-c2ccc(C(=O)N3CCC4(CCN(C)C4)C3)c(OC)c2)c1C#Cc1ccc(N)nc1 (stereo not shown) [Example E-66] | 662 |
| CCc1ncnc(-c2cc(F)c(C(=O)N3CCNCC3)c(F)c2)c1C#Cc1ccc(N)nc1 [Example E-14] | 353 |
| CCc1ncnc(-c2ccc(C(=O)N3CCN(CC(C)(C)O)CC3)c(F)c2)c1C#Cc1ccc(N)nc1 [Example E-349] | 175 |
| CCc1ncnc(-c2ccc(C(=O)N3CCC(C(C)(C)O)CC3)c(C(F)(F)F)c2)c1C#Cc1ccc(N)nc1 [Example E-232] | 142 |
| CCc1ncnc(-c2ccc(C(=O)N3CCN(C4COC4)CC3)c(F)c2)c1C#Cc1ccc(N)nc1 [Example E-271] | 113 |
| CCc1ncnc(-c2ccc(C(=O)N3CC[C@H](N(C)C)C3)c(F)c2)c1C#Cc1ccc(NC)nc1 [Example E-181] | 275 |
| CCc1ncnc(-c2ccc(C(=O)N3CCN(C(C)=O)CC3)c(C)c2)c1C#Cc1ccc(N)nc1 [Example E-108] | 71.5 |
| CCc1ncnc(-c2ccc(C(=O)N3CCN(C(C)=O)CC3)c(Cl)c2)c1C#Cc1ccc(N)nc1 [Example D-46] | 97 |
| CCc1ncnc(-c2ccc(C(=O)N3CCC[C@@H]3CO)c(F)c2)c1C#Cc1ccc(N)nc1 [Example D-131] | 119 |
| CCc1ncnc(-c2ccc(C(=O)N3CCN(CC4CCCCC4)CC3)c(F)c2)c1C#Cc1ccc(N)nc1 [Example D-94] | 1820 |
| CCCCN1CCN(C(=O)c2ccc(-c3ncnc(CC)c3C#Cc3ccc(N)nc3)cc2C)CC1 [Example E-86] | 147 |
| CCc1ncnc(-c2ccc(C(=O)N3CCN(CCN(C)C)CC3)c(OC)c2)c1C#Cc1ccc(N)nc1 [Example D-60] | 546 |
| CCc1ncnc(-c2ccc(C(=O)N3CCC(N4CCOCC4)CC3)c(Cl)c2)c1C#Cc1ccc(N)nc1 [Example E-71] | 99.9 |
| CCc1ncnc(-c2ccc(C(=O)N3CC[C@@H](O)C3)c(Cl)c2)c1C#Cc1ccc(N)nc1 [Example D-146] | 66 |
| CCc1ncnc(-c2ccc(C(=O)N3CCN(Cc4ncon4)CC3)c(F)c2)c1C#Cc1ccc(N)nc1 [Example E-346] | 167 |
| CCc1ncnc(-c2ccc(C(=O)N(C)CCCOC)c(F)c2)c1C#Cc1ccc(N)nc1 [Example D-1] | 78 |
